Measured values published in ChEMBL document CHEMBL3804815, “Aloperine and Its Derivatives as a New Class of HIV-1 Entry Inhibitors” (ACS Med Chem Lett, 2016).
Activity calls are given as the source filed them. No cut-off for these calls is given here.

How the values were obtained:
[1] = Cytotoxicity against human MT4 cells assessed as reduction in cell viability after 3 days by CellTiter-Glo luminescent assay; assay type: cell-based
[2] = test system: Human immunodeficiency virus 1; experiment: Antiviral activity against HIV1 NL4-3 infected in human MT4 cells assessed as reduction in viral replication measured on day 3 post infection by Nano-Glo luciferase reporter gene assay; assay type: functional, organism-based; conditions: Human immunodeficiency virus 1, NL4-3, MT4, 72 h
[3] = test system: Human immunodeficiency virus 1; experiment: Antiviral activity against HIV1 NL4-3 assessed as inhibition of viral infection in human MT4 cells treated 2 hrs post infection; assay type: functional, organism-based
[4] = Inhibition of HIV1 YU2 gp120-induced cell-cell fusion between viral envelope expressing African green monkey COS cells to CCR5 receptor expressing human TZM-bl cells after overnight incubation by Bright-Glo luciferase assay; assay type: cell-based, Human immunodeficiency virus type 1 (isolate YU2); conditions: Human immunodeficiency virus 1, COS
[5] = test system: Human immunodeficiency virus 1; experiment: Antiviral activity against HIV1 NL4-3 assessed as inhibition of early phase viral infection in human MT4 cells; assay type: functional, organism-based
[6] = Inhibition of HIV1 NL4-3 Env-induced cell-cell fusion between viral envelope expressing African green monkey COS cells to CXCR4 receptor expressing human TZM-bl cells after overnight incubation by Bright-Glo luciferase assay; assay type: cell-based; conditions: Human immunodeficiency virus 1, NL4-3, COS
COS [7] = experiment: Inhibition of BMS-806 resistant HIV1 YU2 gp120 T198P mutant-induced cell-cell fusion between viral envelope expressing African green monkey COS cells to CCR5 receptor expressing human TZM-bl cells at 0.001 to 10 uM after overnight incubation by Bright-Glo luciferase assay; assay type: cell-based; conditions: Human immunodeficiency virus type 1 (isolate YU2)
COS [8] = experiment: Inhibition of HIV1 8X gp120-induced cell-cell fusion between viral envelope expressing African green monkey COS cells and human TZM-bl cells at 0.001 to 10 uM after overnight incubation by Bright-Glo luciferase assay; assay type: cell-based; conditions: Human immunodeficiency virus 1

| Compound | CC50 at 72 h [1] | EC50 [2] | also measured |
| --- | --- | --- | --- |
| O=C(NCCCN1CCCC2=C[C@H]3C[C@H](CN4CCCC[C@H]34)[C@@H]21)c1ccc(OC(F)(F)F)cc1 | > 41.9 µM | > 10 µM | – |
| O=C(/C=C/c1ccc(OC(F)(F)F)cc1)NCCCCN1CCCC2=C[C@H]3C[C@H](CN4CCCC[C@H]34)[C@@H]21 | 9.02 µM | 2.06 µM | – |
| C1=C2CCCN(CCCCCNCc3ccccc3)[C@H]2[C@@H]2C[C@H]1[C@H]1CCCCN1C2 | 25.1 µM | 0.84 µM | – |
| NCCCCCN1CCCC2=C[C@H]3C[C@H](CN4CCCC[C@H]34)[C@@H]21 | > 63.1 µM | 5.38 µM | – |
| O=C(/C=C/c1ccc(OC(F)(F)F)cc1)NCCCCCN1CCCC2=C[C@H]3C[C@H](CN4CCCC[C@H]34)[C@@H]21 | 6.36 µM | 2.39 µM | – |
| O=C(NCCCCN1CCCC2=C[C@H]3C[C@H](CN4CCCC[C@H]34)[C@@H]21)c1ccc(F)cc1 | > 47.1 µM | > 10 µM | – |
| O=C(NCCCCCN1CCCC2=C[C@H]3C[C@H](CN4CCCC[C@H]34)[C@@H]21)c1ccc(OC(F)(F)F)cc1 | 12.9 µM | 0.98 µM | – |
| NCCN1CCCC2=C[C@H]3C[C@H](CN4CCCC[C@H]34)[C@@H]21 | > 73 µM | > 10 µM | – |
| O=C(NCCCCCCN1CCCC2=C[C@H]3C[C@H](CN4CCCC[C@H]34)[C@@H]21)c1ccc(OC(F)(F)F)cc1 | 18.5 µM | 5.44 µM | – |
| O=C(NCCCCN1CCCC2=C[C@H]3C[C@H](CN4CCCC[C@H]34)[C@@H]21)c1ccc(OC(F)(F)F)cc1F | > 39.3 µM | 3.14 µM | – |
| O=C(/C=C/c1ccc2c(c1)OCO2)NCCCN1CCCC2=C[C@H]3C[C@H](CN4CCCC[C@H]34)[C@@H]21 | > 43.2 µM | 7.98 µM | – |
| CN1CCCC2=C[C@H]3C[C@H](CN4CCCC[C@H]34)[C@@H]21 | > 81.3 µM | > 10 µM | – |
| O=C(NCCCCN1CCCC2=C[C@H]3C[C@H](CN4CCCC[C@H]34)[C@@H]21)c1ccc(OC(F)(F)F)cc1 | 34.6 µM | 1.12 µM | – |
| Cc1ccc(C(=O)NCCCCN2CCCC3=C[C@H]4C[C@H](CN5CCCC[C@H]45)[C@@H]32)cc1 | > 47.5 µM | 4.98 µM | – |
| O=C(NCCCCN1CCCC2=C[C@H]3C[C@H](CN4CCCC[C@H]34)[C@@H]21)c1ccccc1OC(F)(F)F | > 40.7 µM | > 10 µM | – |
| C1=C2CCCN[C@H]2[C@@H]2C[C@H]1[C@H]1CCCCN1C2 | > 86.2 µM | 1.75 µM | inhibition [3]: inactive; EC50 [4]: 1.6 µM; inhibition [5]: Active; EC50 [6]: 1.2 µM; inhibition (COS [7]): Active; inhibition (COS [8]): Active |
| NCCCN1CCCC2=C[C@H]3C[C@H](CN4CCCC[C@H]34)[C@@H]21 | > 69.4 µM | > 10 µM | – |
| O=C(NCCCCN1CCCC2=C[C@H]3C[C@H](CN4CCCC[C@H]34)[C@@H]21)c1ccccc1 | > 49.1 µM | > 10 µM | – |
| O=C(NCCCCN1CCCC2=C[C@H]3C[C@H](CN4CCCC[C@H]34)[C@@H]21)c1ccc(O)cc1 | > 47.3 µM | 4.57 µM | – |
